Measured values from paper PMC10349806 (Nature Communications, 2023).
Values joined by “and” are separate entries in the source; they are usually repeats but may differ in a detail not shown here. Identical values can stand only once.

Assays:
[1] = tested on: PfCRT variant E207K; assay: CQ uptake assay, oocytes expressing E207K; type: cell-based, Plasmodium falciparum
Procedure: (§1) Site-directed mutagenesis of PfCRT^Dd2 was performed as described using the megaprimer method with overlap extension[21],[54]. The primer pairs used are listed in Supplementary Table 6. Please note that a codon-optimized and oocyte-adapted version of PfCRT^Dd2 was used[22] (Supplementary Fig. 16). The resulting DNA fragment was cloned into the SP64T expression vector and verified by sequencing.
(§2) Oocytes were obtained as described previously. Briefly, adult (>2 years old) female X. laevis frogs (NASCO) were anesthetized in a cooled solution of ethyl 3-amino benzoate methanesulfonate (0.1%, w/v), followed by a surgical removal of parts of the ovary. The ovary lobes were carefully dissected and small pieces of oocytes were incubated in Ca^2+-free ND96 buffer (96 mM NaCl, 2 mM KCl, 1 mM MgCl2 buffered with 5 mM HEPES/NaOH, pH 7.5) supplemented with collagenase D (0.1%, w/v; Roche), BSA (0.5%, w/v), and 9 mm Na2HPO4 at 18 °C for 14-16 h while gentle shaking. After incubation, the oocytes were carefully washed several times with ND96 buffer (96 mM NaCl, 2 mM KCl, 1.8 mM CaCl2, 1 mM MgCl2 buffered with 5 mM HEPES/NaOH, pH 7.5) supplemented with 100 mg l^−1 gentamycin). Defolliculated and healthy-looking stage V-VI oocytes were manually selected for RNA microinjection. The RNA was generated as following: The codon-optimized sequences of PfCRT variants were cloned into the pSP64T expression vector. After vector linearization using the restriction endonucleases BamHI or SalI (New England Biolabs), transcription was performed using the in vitro SP6 mMessage mMachine Kit (Ambion)[34]. The obtained RNA was kept at −80 °C and diluted with nuclease-free water to a concentration of 0.6 μg μl^−1. Precision-bore glass capillary tubes (3.5-inch glass capillaries; Drummond Scientific Co.) were pulled on a vertical puller (P-87 Flaming/Brown micropipette puller, Sutter Instrument Co.), graduated, and placed on a microinjector (Nanoject II Auto-Nanoliter Injector, Drummond Scientific Co.). 50 nl of nuclease-free water alone (control oocytes) or 50 nl of 0.6 μg μl^−1 RNA were injected under stereomicroscopic control. Injected oocytes were incubated for 46–72 h at 18 °C with twice-daily buffer changes before usage in experiments.
Drug uptake assays were performed as described previously[21],[22],[24],[34]. […] The direction of radio-labeled drug transport is here from the mostly acidic extracellular solution (pH 4.5 or 6.0, as indicated) into the oocyte cytosol (pH ∼ 7.2), which corresponds to the efflux of drug from the acidic digestive vacuole (pH 5.2) into the parasite cytoplasm (pH 7.2). The topology of PfCRT in the oolemma is such that both the N- and C-terminus face the extracellular milieu[3],[22]. In the parasite, the N- and C-terminus face the lumen of the digestive vacuole. CQ uptake kinetics were performed by incubating oocytes in ND96 buffer adjusted to a pH of 4.5, 5.0, 5.5, or 6.0 and supplemented with 50 nM [^3H]CQ and one of 7 different CQ concentrations (10 µM, 50 µM, 100 µM, 200 µM, 300 µM, 400 µM, 500 µM CQ). The reaction was stopped at the 60 min time point, which is in the linear uptake range[22],[34] (Supplementary Fig. 17). For determination of the amount of drug uptake for each oocyte, the reaction medium was removed and the oocytes were washed three times with 2 ml of ice-cold ND96 buffer. Each oocyte was individually transferred to a scintillation vial containing 5% sodium dodecyl sulfate (200 μl) for lysis. The radioactivity of each sample was measured using a liquid scintillation analyzer Tri-Carb 4910 TR (PerkinElmer). Oocytes that were injected with water instead of RNA were analyzed in parallel, representing the uptake of a drug by diffusion and/or endogenous permeation pathways. The resulting value represents the “background“ level of drug accumulation in oocytes (in-depth discussion in[22]). […]

[2] = target: T1, PfCRT variant D368A (Plasmodium falciparum, UniProt Q9N623, A220S/D368A/I356T/K76T/M74I/N326S/N75E/Q271E/R371I); assay: CQ uptake assay, oocytes expressing D368A; type: cell-based
T1 sequence (Q9N623 1-424 M74I/N75E/K76T/A220S/Q271E/N326S/I356T/D368A/R371I): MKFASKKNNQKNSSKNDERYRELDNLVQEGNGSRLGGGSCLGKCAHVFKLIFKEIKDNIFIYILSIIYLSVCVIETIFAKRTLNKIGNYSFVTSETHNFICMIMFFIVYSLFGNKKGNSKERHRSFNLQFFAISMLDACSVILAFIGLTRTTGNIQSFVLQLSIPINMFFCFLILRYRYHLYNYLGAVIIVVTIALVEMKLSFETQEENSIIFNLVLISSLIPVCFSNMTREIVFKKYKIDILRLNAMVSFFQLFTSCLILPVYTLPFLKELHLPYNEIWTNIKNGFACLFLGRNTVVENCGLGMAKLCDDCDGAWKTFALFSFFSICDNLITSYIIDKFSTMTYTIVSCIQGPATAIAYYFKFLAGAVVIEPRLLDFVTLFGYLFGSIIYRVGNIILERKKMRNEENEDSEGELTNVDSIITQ
Procedure: as §1, §2
Drug uptake assays were performed as described previously[21],[22],[24],[34]. […] The direction of radio-labeled drug transport is here from the mostly acidic extracellular solution (pH 4.5 or 6.0, as indicated) into the oocyte cytosol (pH ∼ 7.2), which corresponds to the efflux of drug from the acidic digestive vacuole (pH 5.2) into the parasite cytoplasm (pH 7.2). The topology of PfCRT in the oolemma is such that both the N- and C-terminus face the extracellular milieu[3],[22]. In the parasite, the N- and C-terminus face the lumen of the digestive vacuole. CQ uptake kinetics were performed by incubating oocytes in ND96 buffer adjusted to a pH of 4.5, 5.0, 5.5, or 6.0 and supplemented with 50 nM [^3H]CQ and one of 7 different CQ concentrations (10 µM, 50 µM, 100 µM, 200 µM, 300 µM, 400 µM, 500 µM CQ). The reaction was stopped at the 60 min time point, which is in the linear uptake range[22],[34] (Supplementary Fig. 17). […] The radioactivity of each sample was measured using a liquid scintillation analyzer Tri-Carb 4910 TR (PerkinElmer). Oocytes that were injected with water instead of RNA were analyzed in parallel, representing the uptake of a drug by diffusion and/or endogenous permeation pathways. […]

[3] = E207K, 50 µM CQ, 1 h, mean ± SEM
[4] = D368A, 50 µM CQ, 1 h, mean ± SEM

CCN(CC)CCCC(C)Nc1ccnc2cc(Cl)ccc12 (centres unmarked) [CQ, chloroquine]
Activity at pH 4.5 [1, 3]: 1.91 ± 0.10 pmol h-1 oocyte-1
Activity at pH 6.0 [1, 3]: 2.34 ± 0.24 pmol h-1 oocyte-1
R-value ([1]; E207K, CQ transport at pH 4.5 / pH 6.0): 0.83 ± 0.04
E207K transport activity pH 4.5 ([1]; pH 4.5, individual replicates, Fig 6b): 2.09 pmol oocyte-1 h-1 and 1.67 pmol oocyte-1 h-1 and 1.96 pmol oocyte-1 h-1
E207K transport activity pH 6.0 ([1]; pH 6.0, individual replicates, Fig 6b): 2.92 pmol oocyte-1 h-1 and 1.97 pmol oocyte-1 h-1 and 2.13 pmol oocyte-1 h-1
E207K R-value ([1]; ratio of activity pH 4.5 / pH 6.0): 0.72 and 0.85 and 0.92
Activity at pH 4.5 [2, 4]: 1.36 ± 0.32 pmol h-1 oocyte-1
Activity at pH 6.0 [2, 4]: 3.05 ± 0.29 pmol h-1 oocyte-1
R-value ([2]; D368A, CQ transport at pH 4.5 / pH 6.0): 0.44 ± 0.08
D368A transport activity pH 4.5 ([2]; pH 4.5, single replicates, Fig 1d left): 2.14 pmol oocyte-1 h-1 and 0.90 pmol oocyte-1 h-1 and 1.05 pmol oocyte-1 h-1
D368A transport activity pH 6.0 ([2]; pH 6.0, single replicates, Fig 1d left): 3.49 pmol oocyte-1 h-1 and 3.31 pmol oocyte-1 h-1 and 2.36 pmol oocyte-1 h-1
